According to article PMC9653409, “Generative deep learning enables the discovery of a potent and selective RIPK1 inhibitor” (Nature Communications, 2022):
Values joined by “and” are separate entries in the source; they are usually repeats but may differ in a detail not shown here. Identical values can stand only once. Like-named read-outs stand apart in the source and are kept apart here.

How the values were obtained:
[1] = system: phosphorylation of RIPK1, RIPK3, and MLKL; test: Western blot of necroptotic signaling proteins in HT29 cells; type: cell-based, human; conditions: HT29, TSZ
Procedure: Cell pellets were collected and resuspended in RIPA lysis buffer (Beyotime), to which phenylmethylsulfonyl fluoride, a […], and a phosphatase inhibitor cocktail (Sigma) had been added. […] The supernatants were collected and subjected to western blot analysis.
The cell proteins or tissue proteins were separated in a polyacrylamide gel and transferred to a methanol-activated polyvinylidene fluoride membrane. The membrane was blocked for 2 h in Tris-buffered saline plus Tween-20 containing 5% milk and then immunoblotted sequentially with primary and secondary antibodies. Detection was performed with an ECL chemiluminescence kit (Abbkine). […]

[2] = system: DSS-induced IBD; test: DSS-induced IBD mouse model: colon H&E and S100a9 immunohistochemistry; type: in vivo, C57BL/6 female mice; conditions: 40 mg/kg i.p., day 7
Procedure: The heart, liver, spleen, lung, kidney and colon tissues were fixed directly in 4% paraformaldehyde (24 h), embedded in paraffin, and stained with H&E following standard procedures. All images were acquired using a Pannoramic MIDI scanner. The colon tissues were fixed in 4% paraformaldehyde for 24 h. The tissues were sliced to a thickness of […], deparaffinized with xylene, and rehydrated with graded ethanol. The tissue sections were then placed in a repair box filled with citric acid (pH 6.0) antigen retrieval buffer for antigen retrieval in a microwave oven followed by the quenching of endogenous peroxidase activity in 3% hydrogen peroxide. The sections were incubated overnight at 4 °C with primary antibody (S100a9, 73425, CST), which was prepared in PBS (pH 7.4) according to the manufacturer’s instructions. The sections were then washed three times with PBS, incubated for 1 h with the appropriate secondary antibodies, and staining with freshly prepared DAB color developing solution. Subsequently, the sections were counterstained with hematoxylin and mounted in non-aqueous mounting medium. All images were acquired using a Pannoramic MIDI scanner.

[3] = system: TNFα-induced SIRS; test: TNFα-induced SIRS mouse model: survival; type: in vivo, C57BL/6 female mice
[4] = Pharmacokinetics in Sprague-Dawley rats; type: in vivo; conditions: for Plasma Concentraion / concentration at 0.083 h / concentration at 0.5 h / concentration at 1 h / concentration at 2 h / concentration at 4 h / concentration at 6 h / concentration at 8 h: animals 1-3; for concentration at 0.083 h / concentration at 0.5 h / concentration at 1 h / concentration at 2 h / concentration at 4 h / concentration at 6 h / concentration at 8 h: read-out: Plasma Concentraion; for MRT inf: read-out: MRT0-∞
Procedure: The PK properties of compounds were examined in male Sprague-Dawley rats (n = 3 per group, weight: 180–220 g). Compounds were dissolved in saline with 5% (v/v) DMSO plus 40% (v/v) PEG400. The animals were administered with a single dose of 5 mg/kg (intravenous injection (i.v.)), 20 mg/kg (intraperitoneal injection (i.p.) or oral gavage (p.o.)). Blood samples were collected at 0.083, 0.25, 0.5, 1, 2, 4, 6, 8, 10 and 24 h, and centrifuged to isolate plasma. Subsequently, the plasma compound concentrations were determined by LC-MS/MS-13 (TQ5500, SCIEX), and the PK parameters were calculated using Phoenix WinNonlin 7.0.

[5] = system: HT29 cells; test: Dual staining with CytoCalcein Violet 450 and 7-AAD after TSZ; type: cell-based; conditions: for Dead cell ratio (%): TSZ 24 h, replicates 1-4
Procedure: The assay of dual staining with CytoCalcein Violet 450 and 7-AAD was performed in a 24-well cell culture plate. Cells were plated in each well and cultured at 37 °C overnight. […] Then use CytoCalcein Violet 450 and 7-AAD to double stain the HT29 cells and observe under the microscope. All images were acquired with an Eclipse Ci-L microscope (Nikon, Japan). The dead cells were measured with Image J software, and the data was analyzed with GraphPad software. The experiment was repeated three times.

[6] = male, Sprague-Dawley, rat, plasma, ip, 20 mg/kg
[7] = male, Sprague-Dawley, rat, plasma, iv, 5 mg/kg
[8] = male, Sprague-Dawley, rat, plasma, po, 20 mg/kg

CC(C)C(=O)Nc1nc2cc(-c3ccc4c(c3)c(C(=O)NC(C)c3ccccc3)cn4C)ccn2n1 (stereo not shown) [RI-962]
phosphorylation of RIPK1, RIPK3 and MLKL in intact cells [1]: markedly inhibited the phosphorylation of RIPK1 and its downstream signaling proteins RIPK3 and MLKL in a dose-dependent manner
infiltration by S100a9-positive cells [2]: no infiltration by S100a9-positive cells was observed
tissue damage in the colons (histopathology) [2]: substantially decreased tissue damage
survival rate ([3]; 40 mg/kg i.p. 15 min before mTNFα 300 μg/kg i.v.): 90%
1 means death, 0 means survival ([3]; 40 mg/kg i.p., per animal): 1 and 0
Time after mTNFα ([3]; 40 mg/kg i.p., per animal, time of death or end of observation): 24 h and 72 h
Plasma Concentraion ([4]; Supplementary Figure 7 panel a, 0.083 h): 11181.2 ng/mL and 13503.2 ng/mL
Plasma Concentraion ([4]; Supplementary Figure 7 panel a, 0.5 h): 2022.7 ng/mL and 2493.56 ng/mL
Plasma Concentraion ([4]; Supplementary Figure 7 panel a, 1 h): 324.429 ng/mL and 368.25 ng/mL
Plasma Concentraion ([4]; Supplementary Figure 7 panel a, 2 h): 53.1161 ng/mL and 49.8208 ng/mL
Plasma Concentraion ([4]; Supplementary Figure 7 panel a, 4 h): 20.793 ng/mL and 12.876 ng/mL
Plasma Concentraion ([4]; Supplementary Figure 7 panel a, 6 h): 12.1272 ng/mL and 7.691 ng/mL
Plasma Concentraion ([4]; Supplementary Figure 7 panel a, 8 h): 5.677 ng/mL and 3.748 ng/mL
Plasma Concentraion ([4]; Supplementary Figure 7 panel b, 0.083 h): 127.196 ng/mL and 183.609 ng/mL
Plasma Concentraion ([4]; Supplementary Figure 7 panel b, 0.5 h): 350.948 ng/mL and 617.101 ng/mL
Plasma Concentraion ([4]; Supplementary Figure 7 panel b, 6 h): 11.7068 ng/mL and 13.5938 ng/mL
Plasma Concentraion ([4]; Supplementary Figure 7 panel b, 8 h): 8.501 ng/mL and 5.3 ng/mL
Plasma Concentraion ([4]; Supplementary Figure 7 panel c, 0.083 h): 841.69 ng/mL and 1224.6 ng/mL
Plasma Concentraion ([4]; Supplementary Figure 7 panel c, 0.5 h): 4149.3 ng/mL and 2823.2 ng/mL
Plasma Concentraion ([4]; Supplementary Figure 7 panel c, 1 h): 3680.1 ng/mL and 2363 ng/mL
Plasma Concentraion ([4]; Supplementary Figure 7 panel c, 2 h): 635.78 ng/mL and 701.71 ng/mL
Plasma Concentraion ([4]; Supplementary Figure 7 panel c, 4 h): 226.7 ng/mL and 115.63 ng/mL
concentration at 0.083 h ([4]; male, Sprague-Dawley, rat, plasma, intraperitoneal, 20 mg/kg, Supplementary Figure 7 panel c, 0.083 h): 1010 ng/mL
concentration at 0.5 h ([4]; male, Sprague-Dawley, rat, plasma, intraperitoneal, 20 mg/kg, Supplementary Figure 7 panel c, 0.5 h): 3840 ng/mL
concentration at 1 h ([4]; male, Sprague-Dawley, rat, plasma, intraperitoneal, 20 mg/kg, Supplementary Figure 7 panel c, 1 h): 3080 ng/mL
concentration at 2 h ([4]; male, Sprague-Dawley, rat, plasma, intraperitoneal, 20 mg/kg, Supplementary Figure 7 panel c, 2 h): 737 ng/mL
concentration at 4 h ([4]; male, Sprague-Dawley, rat, plasma, intraperitoneal, 20 mg/kg, Supplementary Figure 7 panel c, 4 h): 229 ng/mL
concentration at 0.083 h ([4]; male, Sprague-Dawley, rat, plasma, intravenous, 5 mg/kg, Supplementary Figure 7 panel a, 0.083 h): 11800 ng/mL
concentration at 0.5 h ([4]; male, Sprague-Dawley, rat, plasma, intravenous, 5 mg/kg, Supplementary Figure 7 panel a, 0.5 h): 1610 ng/mL
concentration at 1 h ([4]; male, Sprague-Dawley, rat, plasma, intravenous, 5 mg/kg, Supplementary Figure 7 panel a, 1 h): 291 ng/mL
concentration at 2 h ([4]; male, Sprague-Dawley, rat, plasma, intravenous, 5 mg/kg, Supplementary Figure 7 panel a, 2 h): 59.6 ng/mL
concentration at 4 h ([4]; male, Sprague-Dawley, rat, plasma, intravenous, 5 mg/kg, Supplementary Figure 7 panel a, 4 h): 20.6 ng/mL
concentration at 6 h ([4]; male, Sprague-Dawley, rat, plasma, intravenous, 5 mg/kg, Supplementary Figure 7 panel a, 6 h): 11.6 ng/mL
concentration at 8 h ([4]; male, Sprague-Dawley, rat, plasma, intravenous, 5 mg/kg, Supplementary Figure 7 panel a, 8 h): 6.4 ng/mL
AUC(0-inf) [4, 6]: 6610 ± 1120 ng·h/mL
AUC(0-t) [4, 6]: 6460 ng·h/mL
Cmax [4, 6]: 3600 ± 693 ng/mL
Tmax [4, 6]: 0.5 h
bioavailability [4, 6]: 35.7 ± 6.3%
half-life [4, 6]: 8.5 ± 1.6 h
MRT inf [4, 6]: 2.8 ± 0.1 h
AUC(0-inf) [4, 7]: 4540 ± 546 ng·h/mL
AUC(0-t) [4, 7]: 4530 ng·h/mL
Cmax [4, 7]: 12200 ± 1200 ng/mL
Tmax [4, 7]: 0.1 h
clearance [4, 7]: 18.5 ± 2.1 mL/min/kg
half-life [4, 7]: 2.1 ± 0.2 h
MRT inf [4, 7]: 0.4 h
Vd ([4]; male, Sprague-Dawley, rat, plasma, iv, 5 mg/kg, read-out: Vss): 0.4 ± 0.1 L/kg
concentration at 0.083 h ([4]; male, Sprague-Dawley, rat, plasma, oral, 20 mg/kg, Supplementary Figure 7 panel b, 0.083 h): 113 ng/mL
concentration at 0.5 h ([4]; male, Sprague-Dawley, rat, plasma, oral, 20 mg/kg, Supplementary Figure 7 panel b, 0.5 h): 418 ng/mL
concentration at 6 h ([4]; male, Sprague-Dawley, rat, plasma, oral, 20 mg/kg, Supplementary Figure 7 panel b, 6 h): 11.3 ng/mL
concentration at 8 h ([4]; male, Sprague-Dawley, rat, plasma, oral, 20 mg/kg, Supplementary Figure 7 panel b, 8 h): 7.91 ng/mL
AUC(0-inf) [4, 8]: 1600 ± 896 ng·h/mL
AUC(0-t) [4, 8]: 1590 ng·h/mL
Cmax [4, 8]: 674 ± 425 ng/mL
Tmax [4, 8]: 0.8 ± 1 h
half-life [4, 8]: 1.3 ± 0.2 h
MRT inf [4, 8]: 1.8 ± 0.2 h
AUC0–t ([4]; p.o., 20 mg/kg): 1594.9 ± 891.8 ng·h/mL
F (%) ([4]; p.o., 20 mg/kg): 8.8 ± 5.0%
Dead cell ratio (%) ([5]; 3 nM): 15.55% and 9.32% and 10.06% and 11.13%
Dead cell ratio (%) ([5]; 10 nM, listed as RI-963): 9.02% and 6.38% and 5.61% and 6.01%
TSZ-induced necroptosis, dual staining ([5]; HT29, 24 h): inhibited TSZ-induced necroptosis and improved cell survival in a concentration-dependent manner
